Measured values: patent US7579469B2, “Glucocorticoid mimetics, methods of making them, pharmaceutical compositions, and uses thereof” (Boehringer Ingelheim Pharmaceuticals, Inc., priority 2003, dated 2009)

Key:
[1] = system: Osteocalcin Production from Osteoblast Cell Line MG-63; assay: Inhibition of osteocalcin production from osteoblast cell line MG-63; assay type: cell-based, human; details: MG-63 cells, Vitamin D 10 nM, 48 hours, osteocalcin ELISA
Description: Representative compounds of the invention have been tested and have shown activity as modulators of the glucocorticoid receptor function in one or more of the above assays. […] 7. Inhibition of Osteocalcin Production from Osteoblast Cell Line MG-63
Human osteosarcoma MG-63 cells (ATCC, Cat. No. CRL-1427) are plated on 96 well plates at 20,000 cells per well the day before use in 200 μL media of 99% D-MEM/F-12 (Gibco-Invitrogen, Cat. No. 11039-021), supplemented with 1% penicillin and streptomycin (Gibco-Invitrogen, Cat. No. 15140-122), 10 μg/mL Vitamin C (Sigma, Cat. No. A4544), and 1% charcoal filtered Fetal Bovine Serum (HyClone, Cat. No. SH30068.02). The next day, wells are replaced with fresh media. Cells are treated with Vitamin D (Sigma, Cat. No. D1530) to a final concentration of 10 nM, and with the test compounds in concentrations of 10^−6 M to 10^−9 M, in a total volume of 200 μL per well. Samples are done in duplicates. […] Positive control wells receive Vitamin D only, without compounds, and represent maximum (100%) amount of osteocalcin production. Plates are incubated at 37° C. incubator for 48 hours and supernatants are harvested at the end of incubation. Amounts of osteocalcin in the supernatants are determined by the Glype osteocalcin ELISA kit (Zymed, Cat. No. 99-0054) according to manufacture's protocol. Inhibition of osteocalcin by test compounds is expressed in percentage relative to positive controls. IC50 values of the test compounds are derived by non-lineal curve fitting.

[2] = molecular target: T1, human glucocorticoid receptor (GR) complex (Homo sapiens, UniProt P04150); assay: Glucocorticoid receptor competitive binding assay (fluorescence polarization); details: competition with TAMRA-labeled dexamethasone
T1 construct: made in house; host or cells: insect expression system (baculovirus lysate)
T1 sequence (P04150 1-777): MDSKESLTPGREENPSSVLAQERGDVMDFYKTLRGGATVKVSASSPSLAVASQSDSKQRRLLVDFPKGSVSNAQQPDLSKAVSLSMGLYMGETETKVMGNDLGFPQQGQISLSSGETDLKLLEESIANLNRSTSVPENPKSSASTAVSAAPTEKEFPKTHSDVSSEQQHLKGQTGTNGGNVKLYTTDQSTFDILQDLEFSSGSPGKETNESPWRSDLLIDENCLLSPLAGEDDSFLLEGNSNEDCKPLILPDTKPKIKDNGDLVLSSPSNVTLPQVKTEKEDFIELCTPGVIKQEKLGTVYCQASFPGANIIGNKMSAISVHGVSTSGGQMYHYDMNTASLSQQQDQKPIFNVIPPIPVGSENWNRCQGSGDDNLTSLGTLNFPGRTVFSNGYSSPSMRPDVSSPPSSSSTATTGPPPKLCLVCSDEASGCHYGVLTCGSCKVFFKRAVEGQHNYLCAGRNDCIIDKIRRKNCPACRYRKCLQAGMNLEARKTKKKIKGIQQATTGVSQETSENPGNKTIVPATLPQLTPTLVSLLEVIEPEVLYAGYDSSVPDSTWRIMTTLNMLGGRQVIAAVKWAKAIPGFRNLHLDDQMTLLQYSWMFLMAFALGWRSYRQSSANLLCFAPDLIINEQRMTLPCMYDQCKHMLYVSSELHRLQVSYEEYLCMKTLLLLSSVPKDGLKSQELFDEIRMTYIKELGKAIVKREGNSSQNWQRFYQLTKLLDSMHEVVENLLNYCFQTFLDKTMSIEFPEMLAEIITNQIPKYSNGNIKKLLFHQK
Outline: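 Fluorescence polarization competition against TAMRA-labelled dexamethasone (50 μL of 15 nM added) for human GR complex from baculovirus insect-cell lysate, diluted 1:170, in TES/KCl/molybdate buffer, pH 7.4.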

SMILES | inhibit the vitamin D stimulated production of osteocalcin [1] | activity in the GR binding assay [2] | melting point
CC(C)(CC(O)(Cn1ccc(=O)c2ccccc21)C(F)(F)F)c1cc(F)ccc1O (centres unmarked) [1-[4-(5-Fluoro-2-hydroxyphenyl)-2-hydroxy-4-methyl-2-trifluoromethylpentyl]-1H-quinolin-4-one] | inhibit | potent activity | –
COc1ccc(F)cc1C(C)(C)CC(O)(Cn1cc(C)c(=O)c2ccccc21)C(F)(F)F (centres unmarked) [Example 26, 1-[4-(5-fluoro-2-methoxyphenyl)-2-hydroxy-4-methyl-2-trifluoromethylpentyl]-3-methyl-1H-quinolin-4-one] | – | – | > 225 °C
CC(C)(CC(O)(Cn1ccc(=O)c2ccccc21)C(F)(F)F)c1cc(S(C)(=O)=O)cc2c1OCC2 (centres unmarked) [1-[2-Hydroxy-4-(5-methanesulfonyl-2,3-dihydrobenzofuran-7-yl)-4-methyl-2-trifluoromethylpentyl]-1H-quinolin-4-one] | inhibit | potent activity | –
CC(C)(CC(O)(Cn1ccc(=O)c2ccccc21)C(F)(F)F)c1cc(F)ccc1OC(F)F (centres unmarked) [Example 28, 1-[4-(2-difluoromethoxy-5-fluorophenyl)-2-hydroxy-4-methyl-2-trifluoromethylpentyl]-1H-quinolin-4-one] | – | – | 150 to 155 °C
CCOc1ccc(F)cc1C(C)(C)CC(O)(Cn1ccc(=O)c2ccccc21)C(F)(F)F (centres unmarked) [Example 27, 1-[4-(2-ethoxy-5-fluorophenyl)-2-hydroxy-4-methyl-2-trifluoromethylpentyl]-1H-quinolin-4-one] | – | – | 195 to 196 °C
CC(C)(CC(O)(Cn1ccc(=O)c2ccc(F)cc21)C(F)(F)F)c1cc(F)ccc1O (centres unmarked) [7-Fluoro-1-[4-(5-fluoro-2-hydroxyphenyl)-2-hydroxy-4-methyl-2-trifluoromethylpentyl]-1H-quinolin-4-one] | inhibit | potent activity | –
CC(C)(CC(O)(Cn1ccc(=O)c2ccccc21)C(F)(F)F)c1cccc(-c2ccccc2)c1 (centres unmarked) [1-(4-Biphenyl-3-yl-2-hydroxy-4-methyl-2-trifluoromethylpentyl)-1H-quinolin-4-one] | inhibit | – | –
CC(C)(CC(O)(Cn1ccc(=O)c2ccccc21)C(F)(F)F)c1cc(Br)cc2c1OCC2 (centres unmarked) [1-[4-(5-Bromo-2,3-dihydrobenzofuran-7-yl)-2-hydroxy-4-methyl-2-trifluoromethylpentyl]-1H-quinolin-4-one] | inhibit | potent activity | –
COc1ccc(F)cc1C(C)(C)CC(O)(Cn1[nH]c(=O)c2ccccc21)C(F)(F)F (centres unmarked) [Example 23, 1-[4-(5-fluoro-2-methoxyphenyl)-2-hydroxy-4-methyl-2-trifluoromethylpentyl]-1,2-dihydroindazol-3-one] | – | – | 141 to 144 °C
CC(C)(CC(O)(Cn1ccc(=O)c2ncccc21)C(F)(F)F)c1cc(F)ccc1O (centres unmarked) | inhibit | – | –
